Experimental findings from paper PMC12584752, “Covalent fragment screening to inhibit the E3 ligase activity of bacterial NEL enzymes SspH1 and SspH2” (RSC Chemical Biology, 2025) are described below.

Holding throughout (conditions): live HEK293T cells, 50 μM, four hours
The target in assay [1] is T1, SspH1 expressed in HEK293T cells (Salmonella typhimurium, UniProt D0ZVG2).
T1 construct: SspH1 (aa 1–700) and SspH2 (aa 1–786) genes were cloned separately; expressed in transfected cells; host or cells: HEK293T
T1 sequence (D0ZVG2 whole entry, the tested form may be a part): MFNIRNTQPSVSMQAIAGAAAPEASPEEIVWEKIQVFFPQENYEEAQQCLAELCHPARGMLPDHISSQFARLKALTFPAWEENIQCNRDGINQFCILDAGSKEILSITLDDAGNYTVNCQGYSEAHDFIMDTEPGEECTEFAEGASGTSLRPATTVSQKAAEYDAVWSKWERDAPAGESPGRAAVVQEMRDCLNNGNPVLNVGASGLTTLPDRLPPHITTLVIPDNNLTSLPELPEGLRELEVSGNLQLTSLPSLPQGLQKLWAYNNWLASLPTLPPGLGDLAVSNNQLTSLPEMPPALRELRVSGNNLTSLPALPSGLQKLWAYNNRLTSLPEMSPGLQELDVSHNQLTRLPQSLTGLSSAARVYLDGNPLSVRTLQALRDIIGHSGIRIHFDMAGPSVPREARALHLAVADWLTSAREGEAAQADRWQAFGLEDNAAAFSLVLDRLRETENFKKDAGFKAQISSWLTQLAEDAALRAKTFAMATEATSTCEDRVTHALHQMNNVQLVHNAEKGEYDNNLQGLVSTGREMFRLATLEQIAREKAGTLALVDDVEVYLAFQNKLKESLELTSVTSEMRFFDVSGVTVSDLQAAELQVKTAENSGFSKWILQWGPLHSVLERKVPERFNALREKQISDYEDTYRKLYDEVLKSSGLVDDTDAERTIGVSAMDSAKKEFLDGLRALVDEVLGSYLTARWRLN
Kind of assay: In cellulo target engagement, IA-DTB chemoproteomics. It counts as cell-based. The method, then: (§1) Fig. 5 Characterisation of protein interactions by compounds 6 and 7. (A) SspH1 and SspH2 catalytic cysteine labelling with compound 6 (100–3.125 μM, 4 hours) in HEK293T lysate spiked with recombinant SspH1 and SspH2. Data are presented as mean ± SEM, n = 4. The curves were fitted with GraphPad Prism 10 using four parameter nonlinear regression with baseline correction to DMSO-treated samples. (B) SspH1 and SspH2 catalytic cysteine labelling with compound 7 (100–3.125 μM, 4 hours) in HEK293T lysate spiked with recombinant SspH1 and SspH2. Data are presented as mean ± SEM, n = 4. The curves were fitted with GraphPad Prism 10 using four parameter nonlinear regression with baseline correction to DMSO-treated samples. (C) Volcano plot of IA-DTB competition in SspH1 expressing HEK293T cells treated with compound 6 (50 μM, 4 hours). (D) Volcano plot of IA-DTB competition in SspH2 expressing HEK293T cells treated with compound 6 (50 μM, 4 hours). Data is shown as compared to DMSO treated samples, with competed peptides in the upper left-hand quadrant. […]
(§2) All cells were grown in DMEM media (Gibco, 41966-029) supplemented with FBS (ThermoFisher, A5256701) and Pen/Strep (Gibco, 15140-122) at 37 °C with 5% CO2. […] Protein concentrations were measured using a Rapid BCA Gold Protein Assay Kit (Thermo Scientific, A53226) and diluted to 1 mg mL^−1 with lysis buffer. […]

Assay [2] has as its target T2, SspH2 expressed in HEK293T cells (Salmonella typhimurium, UniProt D0ZPH9).
T2 construct: SspH1 (aa 1–700) and SspH2 (aa 1–786) genes were cloned separately; expressed in transfected cells; host or cells: HEK293T
Described as above. It counts as cell-based. As for the experimental part:
as §1, §2

The test system of assay [3] is mammalian proteins in HEK293T cells. Nature of the assay: In cellulo IA-DTB chemoproteomics, off-target engagement. The assay is classed as cell-based, human. As for the experimental part:
as §1, §2

T2 sequence (D0ZPH9 1-786): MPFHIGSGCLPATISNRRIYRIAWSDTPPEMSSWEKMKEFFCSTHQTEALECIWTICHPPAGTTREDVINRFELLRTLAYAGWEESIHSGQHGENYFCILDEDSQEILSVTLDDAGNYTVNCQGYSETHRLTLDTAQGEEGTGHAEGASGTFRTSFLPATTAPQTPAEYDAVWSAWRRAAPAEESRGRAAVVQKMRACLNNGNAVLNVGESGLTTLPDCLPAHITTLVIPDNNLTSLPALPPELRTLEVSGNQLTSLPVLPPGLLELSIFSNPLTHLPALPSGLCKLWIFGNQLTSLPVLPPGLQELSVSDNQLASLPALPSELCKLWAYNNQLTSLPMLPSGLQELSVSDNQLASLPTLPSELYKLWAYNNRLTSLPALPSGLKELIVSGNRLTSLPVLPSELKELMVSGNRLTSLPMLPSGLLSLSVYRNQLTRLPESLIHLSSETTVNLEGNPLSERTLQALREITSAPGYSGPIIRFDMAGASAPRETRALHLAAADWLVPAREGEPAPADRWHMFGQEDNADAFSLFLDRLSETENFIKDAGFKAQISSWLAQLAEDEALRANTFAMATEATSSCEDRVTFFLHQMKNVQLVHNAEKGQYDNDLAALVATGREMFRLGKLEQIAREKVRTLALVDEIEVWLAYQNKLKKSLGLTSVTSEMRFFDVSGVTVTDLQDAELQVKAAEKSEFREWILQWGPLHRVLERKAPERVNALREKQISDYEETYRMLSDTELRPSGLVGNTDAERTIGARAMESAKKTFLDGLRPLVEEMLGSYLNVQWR

As to `Cc1cc(-c2nc3ccccc3n2C2CCN(C(=O)CCl)CC2)cc(C)c1O.Cl` [compound 6], in assay [1], the “competition of IA-DTB labelling of catalytic cysteine C492 peptide of SspH1” value is “strong competition”. Also, in assay [2], the “competition of IA-DTB labelling of C580 peptide of SspH2” value is listed as “strong competition”. For the same compound, in assay [3], the “engagement of catalytic cysteines-containing peptides of HECT or RBR E3 ligases, or DUBs” value was “none” and the “engagement of mammalian proteins” value is “engagement of multiple mammalian proteins”.
